Assay results from US5283361A, “N-hydroxy-N-[3-[2-(halophenylthio)phenyl]prop-2-enyl]ureas as lipoxygenase inhibitors” (Eli Lilly and Company, priority 1992, dated 1994).

Assays:
5-LO [1] = test: In vivo ovalbumin-induced increase in intratracheal pressure in passively sensitized guinea pigs (Inhibition of 5-LO); parameters: species or system guinea pig; settings: OA-induced increase in tracheal pressure; for Inhibition of 5-LO In Vivo Percent Inhibition (dose of 10 mg/kg): dose of 10 mg/kg (footnote a), po, 2 hr.
Experimental: Male Hartley guinea pigs (350-500 g) were passively sensitized against ovalbumin by i.p. administration of 0.3 ml of antiserum 2 days preceeding the experiment. Hyperimmune serum was prepared from actively sensitizing male guinea pigs conditioned with 2 mg of ovalbumin in 50% Complete Freund's Adjuvant i.p. on days 1 and 5. On day 21, the animals were bled and the serum collected and stored at -20° C. On the day of the experiment the passively sensitized guinea pigs were anesthetized with 35 to 40 mg/kg of pentobarbital sodium given i.p. The right jugular vein was cannulated with Tygon microbore tubing (o.d.=03) connected to a syringe for administration of selected drugs. Blood pressure was measured with a Statham pressure transducer connected to a Tygon catheter placed in the left carotid artery. The trachea was cannulated and each animal was ventilated with room air by means of a Harvard rodent respirator set to deliver a tidal volume of 1 ml/100 g body weight with a rate of 60 breaths/minute. Succinylcholine (5 mg/kg) was given i.v. to suppress spontaneous respiration. Intratracheal pressure, an index of total pulmonary resistance, was measured with a Statham pressure transducer connected to a T-tube on the tracheal cannula. […] Body temperature was maintained within normal limits by means of a Deltaphase isothermal pad. Prior to surgery, test compound or vehicle (PEG 400) was administered to each guinea pig by oral gavage and OA challenge was at designated times following oral dosing. The animals were pretreated i.v. with pyrilamine (5 mg/kg), propranolol (1 mg/kg) and indomethacin (10 mg/kg) 5 minutes prior to the OA challenge. OA-induced increase in tracheal pressure was expressed as a percentage of the maximal pressure obtained by clamping the trachea with a hemistat. To determine the effect of each drug, a % inhibition value was calculated from the vehicle and drug treated animals at each concentration tested.

5-LO [2] = test: In vitro antigen (ovalbumin)-induced contraction of sensitized guinea pig tracheal strips, Schultz-Dale reaction (Inhibition of 5-LO); format: cell-based; settings: Cavia porcellus, antigen (OA) 30 ng/ml, 30 min preincubation, with indomethacin 5 μM and pyrilamine 10 μM
Experimental: Male, Hartley strain guinea-pigs (200-250 g) were actively sensitized by three injections of ovalbumin (OA, 10 mg/kg). The OA was administered intraperitoneally on Days 1 and 3 and subcutaneously on Day 5. In vitro experiments were performed 21-25 days later.
On the day of the experiment, guinea pigs were killed by asphyxiation with CO2 and the tracheas removed, cleaned of surrounding connective tissue and cut into spiral strips. Each strip was divided in half for paired experiments. Tissues were placed in 10 ml jacketed tissue baths maintained at 37° C. and attached with cotton thread to Grass force-displacement transducers (FT03C). […] Tracheal strips were bathed in modified Krebs' solution of the following composition (millimolar) NaCl, 118.2;KCl, 4.6; CaCl2.2H2 O, 2.5; MgSO4.7H2 O, 1.2; NaHCO3,24.8; KH2 PO4, 1.0; and dextrose, 10.0. The buffer contained indomethacin (5 μM) which potentiated the contractions of the cysteinyl leukotriene (LT) by removing the influence of cyclooxygenase products. The tissue baths were aerated with 95% O2 :5% CO2. Tracheal strips were placed under a resting tension of 2 g, and the tissues were allowed a minimal stabilization period of 60 minutes before undergoing experimentation. Bath fluid was changed at 15 minute intervals during the stabilization period.
Cumulative concentration-response curves were obtained from tracheal strips by increasing the agonist concentration in the organ bath by half-log increments while the previous concentration remained in contact with the tissues (van Rossum, Arch. Int. Pharmacodyn. Ther., 143, 299-330 (1963)). Agonist concentration was increased after reaching the plateau of the contraction elicited by the preceeding concentration. One concentration-response curve was obtained from each tissue. To minimize variability between tissues, contractile responses were expressed as a percentage of the maximal response obtained with carbachol (10 μM), added to the bath at the end of the concentration-response curve. Initially, tissues were challenged with carbachol (10 μM) following the 60 minute stabilization period to insure tissue viability. After recording the maximal response to the initial carbachol challenge, the tissues were washed and reequilibrated for 60 minutes before starting the experimental protocol.
To evaluate the effects of novel 5-lipoxygenase inhibitors in the Schultz-Dale reaction, each compound was incubated with the tissues 30 minutes before starting the curves. Vehicle (DMSO) was given to the paired control tissue. Pyrilamine (10 μM) was added to all baths at this time to block the actions of released histamine. Responses obtained at the antigen concentration of 30 ng/ml were recorded in the absence and presence of drug and percent inhibition was calculated for each pair of tissues. IC50 valves were determined by linear regression.

## NC(=O)N(O)C/C=C/c1cccc(F)c1Sc1ccc(Cl)cc1 [Example 7, N-hydroxy-N-[3-[2-(4-chlorophenylthio)-3-fluorophenyl]prop-2-enyl]urea]
5-LO [1]
  Inhibition of 5-LO In Vivo Percent Inhibition (dose of 10 mg/kg): 77%
5-LO [2]
  IC50: 90 nM

## NC(=O)N(O)C/C=C/c1ccccc1Sc1ccc(Cl)cc1 [Example 5, N-hydroxy-N-[3-[2-(4-chlorophenylthio)phenyl]prop-2-enyl]urea]
5-LO [1]
  Inhibition of 5-LO In Vivo Percent Inhibition at 30 mg/kg, po, 2 hr.: 95%
5-LO [2]
  IC50: 140 nM

## NC(=O)N(O)C/C=C/c1ccc(F)cc1Sc1ccc(F)cc1 [Example 3, N-hydroxy-N-[3-[2-(4-fluorophenylthio)-4-fluorophenyl]prop-2-enyl]urea]
5-LO [1]
  Inhibition of 5-LO In Vivo Percent Inhibition (dose of 10 mg/kg): 43%
5-LO [2]
  IC50: 190 nM

## NC(=O)N(O)C/C=C/c1c(F)cccc1Sc1ccc(Cl)cc1 [Example 8]
5-LO [1]
  Inhibition of 5-LO In Vivo Percent Inhibition at 30 mg/kg, po, 2 hr.: 46%
5-LO [2]
  IC50: 130 nM

## NC(=O)N(O)C/C=C/c1c(F)cccc1Sc1ccc(F)cc1 [Example 1, N-hydroxy-N-[3-[2-(4-fluorophenylthio)-6-fluorophenyl]-prop-2-enyl]urea]
5-LO [1]
  Inhibition of 5-LO In Vivo Percent Inhibition at 30 mg/kg, po, 2 hr.: 97%
5-LO [2]
  IC50: 50 nM

## NC(=O)N(O)C/C=C/c1ccccc1Sc1ccc(F)cc1 [Example 2, N-hydroxy-N-[3-[2-(4-fluorphenylthio)phenyl]prop-2-enyl]urea]
5-LO [1]
  Inhibition of 5-LO In Vivo Percent Inhibition at 30 mg/kg, po, 2 hr.: 96%
5-LO [2]
  IC50: 100 nM

## NC(=O)N(O)C/C=C/c1cc(F)ccc1Sc1ccc(F)cc1 [Example 4, N-hydroxy-N-[3-[2-(4-fluorophenylthio)-5-fluorophenyl]prop-2-enyl]urea]
5-LO [1]
  Inhibition of 5-LO In Vivo Percent Inhibition at 30 mg/kg, po, 2 hr.: 52%
5-LO [2]
  IC50: 230 nM

## NC(=O)N(O)C/C=C/c1cccc(F)c1Sc1ccc(F)cc1 [Example 6, N-hydroxy-N-[3-[2-(4-fluorophenylthio)-3-fluorophenyl]prop-2-enyl]urea]
5-LO [1]
  Inhibition of 5-LO In Vivo Percent Inhibition at 30 mg/kg, po, 2 hr.: 81%
5-LO [2]
  IC50: 130 nM
